In patent US8758782B2, “Excipient preservatives and pharmaceutical compositions comprised thereof” (Galderma Research & Development, priority 2007, dated 2014):

What was measured:
[1] = system: Escherichia coli, reference ATCC 8739; experiment: Preservative Efficacy Test (PET), Escherichia coli; type: cell-based; parameters: key to Gram− bacterium, Esoherichia coli: −: No European pharmacopoeia criterion or USP criterion is met; +: for the coli: the USP criteria are met; ++: the European pharmacopoeia criteria A are met; conditions: additive in standard emulsion
From the text: (§1) A particular problem that must be solved by the invention is that of effectively protecting a pharmaceutical topical composition while at the same time meeting the criteria required by the European and U.S. pharmacopoeias. This is because, since the purpose of the pharmaceutical composition is to become a pharmaceutical product with a marketing authorization, it is imperative for the composition according to the invention to meet these criteria. In order to verify this point and to determine the antimicrobial action of the various mixtures of excipients according to the invention, a test protocol, known as the PET (Preservative Efficacy Test), exists. The PET comprises artificially inoculating the compositions with a known number of microorganisms, and then determining the decrease in the latter in the compositions tested, at given times. The protocol of this test is set up in order to abide by the recommendations of the European and U.S. pharmacopoeias. […] The mixture of excipients as preservatives, described herein, should therefore meet the criteria of these pharmacopoeias in the PET. This test comprises artificially contaminating aliquots of formulation by means of a calibrated inoculum of specific microorganisms and incubating the same at precise temperatures. Samples are taken from the contaminated aliquots at given time intervals in order to count the microorganisms. Bacteria: • Escherichia coli, reference ATCC 8739. • Pseudomonas aeruginosa, reference ATCC 9027. • Staphylococcus aureus, reference ATCC 6538.

[2] = system: Staphylococcus aureus, reference ATCC 6538; experiment: Preservative Efficacy Test (PET), Staphylococcus aureus; type: cell-based; parameters: key to Gram+ bacterium, Staphylococcus aureus: −: No European pharmacopoeia criterion or USP criterion is met; +: for the coli: the USP criteria are met; ++: the European pharmacopoeia criteria A are met; conditions: additive in standard emulsion
From the text: as §1, with “Bacteria: • Pseudomonas aeruginosa, reference ATCC 9027; NCIMB 8626; CIP 82.118. • Staphylococcus aureus, reference ATCC 6538; NCTC 10788; NCIMB 9518; CIP 4.83. Bacteria: • Escherichia coli,” for “Bacteria: • Escherichia coli,”

[3] = system: Pseudomonas aeruginosa, reference ATCC 9027; experiment: Preservative Efficacy Test (PET), Pseudomonas aeruginosa; type: cell-based; parameters: key to Gram− bacterium, Pseudomonas aeruginosa: −: No European pharmacopoeia criterion or USP criterion is met; +: for the coli: the USP criteria are met; ++: the European pharmacopoeia criteria A are met; conditions: additive in standard emulsion
From the text: as §1, with “Bacteria: • Pseudomonas aeruginosa, reference ATCC 9027; NCIMB 8626; CIP 82.118. • Staphylococcus aureus, reference ATCC 6538; NCTC 10788; NCIMB 9518; CIP 4.83. Bacteria: • Escherichia coli,” for “Bacteria: • Escherichia coli,”

[4] = system: Candida albicans, reference ATCC 10231; experiment: Preservative Efficacy Test (PET), Candida albicans; type: cell-based; parameters: key to Yeast, Candida albicans: −: No European pharmacopoeia criterion or USP criterion is met; +: for the coli: the USP criteria are met; ++: the European pharmacopoeia criteria A are met; conditions: additive in standard emulsion
From the text: (§2) A particular problem that must be solved by the invention is that of effectively protecting a pharmaceutical topical composition while at the same time meeting the criteria required by the European and U.S. pharmacopoeias. This is because, since the purpose of the pharmaceutical composition is to become a pharmaceutical product with a marketing authorization, it is imperative for the composition according to the invention to meet these criteria. In order to verify this point and to determine the antimicrobial action of the various mixtures of excipients according to the invention, a test protocol, known as the PET (Preservative Efficacy Test), exists. The PET comprises artificially inoculating the compositions with a known number of microorganisms, and then determining the decrease in the latter in the compositions tested, at given times. The protocol of this test is set up in order to abide by the recommendations of the European and U.S. pharmacopoeias. […] The mixture of excipients as preservatives, described herein, should therefore meet the criteria of these pharmacopoeias in the PET. This test comprises artificially contaminating aliquots of formulation by means of a calibrated inoculum of specific microorganisms and incubating the same at precise temperatures. Samples are taken from the contaminated aliquots at given time intervals in order to count the microorganisms. Fungi: • Candida albicans, reference ATCC 10231; NCPF 3179; IP 48.72. • Aspergillus niger, reference ATCC 16404; IMI 149007; IP 1431.83. Fungi: • Candida albicans, reference ATCC 10231. • Aspergillus niger, reference ATCC 16404.

[5] = system: Aspergillus niger, reference ATCC 16404; experiment: Preservative Efficacy Test (PET), Aspergillus niger; type: cell-based; parameters: key to Moulds, Aspergillus Niger: −: No European pharmacopoeia criterion or USP criterion is met; +: for the coli: the USP criteria are met; ++: the European pharmacopoeia criteria A are met; conditions: for Moulds, Aspergillus Niger: additive in standard emulsion at its given % (EDTA 0.15, citric acid 2, sodium ascorbate 2, tocopherol 0.05, BHT 1, propyl gallate 0.1, ascorbyl palmitate 1)
From the text: as §2

[6] = system: Bacteria and fungi (Escherichia coli, Pseudomonas aeruginosa, Staphylococcus aureus, Candida albicans, Aspergillus niger); experiment: PET, overall compliance with European and U.S. pharmacopoeia criteria; type: cell-based; conditions: for USP criteria / Bacteria: European pharmacopoeia criteria: 30% by mass in an aqueous solution, without ethanol; for Bacteria: European pharmacopoeia criteria: bacteria only; for Solutions providing antimicrobial protection, Pharma Europe: EtOH concentration / Solutions providing antimicrobial protection, Pharma USP: EtOH concentration: ethanol combined with the humectant; for Solutions providing antimicrobial protection, Pharma Europe: EtOH concentration / Solutions providing antimicrobial protection, Pharma USP: EtOH concentration / Solutions providing antimicrobial protection, Pharma Europe: humectant concentration / Solutions providing antimicrobial protection, Pharma USP: humectant concentration: lotion-type aqueous solution, no preservative; for Solutions providing antimicrobial protection, Pharma Europe: humectant concentration / Solutions providing antimicrobial protection, Pharma USP: humectant concentration: humectant combined with ethanol; for Ethanol concentration to meet European pharmacopoeia criteria A: reduced from 25%; for Ethanol concentration to meet the USP criteria: reduced from 15%; for Efficacy on the microorganisms as a whole / spectrum of efficacy: additive in standard emulsion
From the text: A particular problem that must be solved by the invention is that of effectively protecting a pharmaceutical topical composition while at the same time meeting the criteria required by the European and U.S. pharmacopoeias. This is because, since the purpose of the pharmaceutical composition is to become a pharmaceutical product with a marketing authorization, it is imperative for the composition according to the invention to meet these criteria. In order to verify this point and to determine the antimicrobial action of the various mixtures of excipients according to the invention, a test protocol, known as the PET (Preservative Efficacy Test), exists. The PET comprises artificially inoculating the compositions with a known number of microorganisms, and then determining the decrease in the latter in the compositions tested, at given times. The protocol of this test is set up in order to abide by the recommendations of the European and U.S. pharmacopoeias. The test and also the recommendations of the European and U.S. pharmacopoeias are described in Example 1 to follow. The mixture of excipients as preservatives, described herein, should therefore meet the criteria of these pharmacopoeias in the PET.
This test comprises artificially contaminating aliquots of formulation by means of a calibrated inoculum of specific microorganisms and incubating the same at precise temperatures. Samples are taken from the contaminated aliquots at given time intervals in order to count the microorganisms.
It also makes it obligatory to study the reductions in population of the microorganisms introduced into the formulation according to two acceptability criteria.
Since the A criteria are the most strict, it are […] generally required that they be met.
In justified cases, when the A criteria cannot be complied with, for example owing to an increase in the risk of adverse reactions, the B criteria, which are less drastic, apply.
NI (Non-Increase) signifies that there must not be an increase in the number of microorganisms.
It imposes logarithmic reductions in the population of microorganisms which are different than that of the European pharmacopoeia.

Aspergillus niger = conditions: cited from earlier work
Candida albicans = conditions: cited from earlier work

Cc1cc(C(C)(C)C)c(O)c(C(C)(C)C)c1 [BHT, butylhydroxytoluene]
Gram− bacterium, Esoherichia coli [1]: −
Gram+ bacterium, Staphylococcus aureus [2]: −
Gram− bacterium, Pseudomonas aeruginosa [3]: −
Yeast, Candida albicans [4]: −
Moulds, Aspergillus Niger [5]: −

CC(O)CO (stereo not drawn) [PG, Propylene glycol]
Action on fungi, in particular Aspergillus niger ([5]; humectant alone, without ethanol): does not ensure a decrease in these microorganisms
USP criteria [6]: makes it possible to meet
Bacteria: European pharmacopoeia criteria [6]: meeting European pharmacopoeia criteria A
Solutions providing antimicrobial protection, Pharma Europe: EtOH concentration [6]: starting from 15%
Solutions providing antimicrobial protection, Pharma USP: EtOH concentration [6]: starting from 0% EtOH
Solutions providing antimicrobial protection, Pharma Europe: humectant concentration [6]: starting from 5% PG
Solutions providing antimicrobial protection, Pharma USP: humectant concentration [6]: starting from 30% PG
Ethanol concentration to meet European pharmacopoeia criteria A ([6]; with 10% of PG): 15%

Polyethylene Glycol 400 [PEG 400]
Solutions providing antimicrobial protection, Pharma Europe: EtOH concentration [6]: starting from 10%
Solutions providing antimicrobial protection, Pharma USP: EtOH concentration [6]: starting from 5% EtOH
Solutions providing antimicrobial protection, Pharma Europe: humectant concentration [6]: starting from 20%
Solutions providing antimicrobial protection, Pharma USP: humectant concentration [6]: starting from 20% PEG
Ethanol concentration to meet the USP criteria ([6]; with 20% by mass of PEG 400): 5%
Ethanol concentration to meet European pharmacopoeia criteria A ([6]; with 20% by mass of PEG 400): 10%

COC(=O)c1ccc(O)cc1 [methylparaben]
Concentration that makes it possible to inhibit Aspergillus niger (Aspergillus niger): 1000 ppm
Concentration that makes it possible to inhibit Candida albicans (Candida albicans): 1000 ppm

OCC(O)CO [glycerol]
USP criteria [6]: does not meet
Bacteria: European pharmacopoeia criteria [6]: meet only European pharmacopoeia criteria B for bacteria
Solutions providing antimicrobial protection, Pharma Europe: EtOH concentration [6]: starting from 15%
Solutions providing antimicrobial protection, Pharma USP: EtOH concentration [6]: starting from 5% EtOH
Solutions providing antimicrobial protection, Pharma Europe: humectant concentration [6]: starting from 5%
Solutions providing antimicrobial protection, Pharma USP: humectant concentration [6]: starting from 10%
Ethanol concentration to meet European pharmacopoeia criteria A ([6]; with 5% by mass of glycerol): 15%
Ethanol concentration to meet the USP criteria ([6]; with 10% by mass of glycerol): 5%

CCCOC(=O)c1cc(O)c(O)c(O)c1 [Propyl gallate]
Gram− bacterium, Esoherichia coli [1]: −
Gram+ bacterium, Staphylococcus aureus [2]: −
Gram− bacterium, Pseudomonas aeruginosa [3]: ++
Inhibition of Pseudomonas aeruginosa, criteria met [3]: meeting European pharmacopoeia criteria A
Yeast, Candida albicans [4]: −
Moulds, Aspergillus Niger [5]: −

O=C1O[C@H]([C@@H](O)CO)C([O-])=C1O.[Na+] [Sodium ascorbate]
Action on Escherichia coli, criteria met [1]: meeting the USP criteria
Gram− bacterium, Esoherichia coli [1]: +
Action on Staphylococcus aureus, criteria met [2]: meeting European pharmacopoeia criteria A
Gram+ bacterium, Staphylococcus aureus [2]: ++
Gram− bacterium, Pseudomonas aeruginosa [3]: −
Yeast, Candida albicans [4]: −
Moulds, Aspergillus Niger [5]: −

Tocopherol
Gram− bacterium, Esoherichia coli [1]: −
Gram+ bacterium, Staphylococcus aureus [2]: −
Gram− bacterium, Pseudomonas aeruginosa [3]: −
Yeast, Candida albicans [4]: −
Moulds, Aspergillus Niger [5]: −
Efficacy on the microorganisms as a whole / spectrum of efficacy [6]: do not have a significant efficacy

O.O.O=C([O-])CN(CCN(CC(=O)O)CC(=O)O)CC(=O)[O-].[Na+].[Na+] [EDTA, Disodium EDTA Dihydrate]
Gram− bacterium, Esoherichia coli [1]: −
Gram+ bacterium, Staphylococcus aureus [2]: −
Gram− bacterium, Pseudomonas aeruginosa [3]: ++
Inhibition of Pseudomonas aeruginosa, criteria met [3]: meeting European pharmacopoeia criteria A
Yeast, Candida albicans [4]: −
Moulds, Aspergillus Niger [5]: −

CCCCCCCCCCCCCCCC(=O)OC[C@H](O)[C@H]1OC(=O)C(O)=C1O [Ascorbyl palmitate]
Gram− bacterium, Esoherichia coli [1]: +
Gram+ bacterium, Staphylococcus aureus [2]: ++
Gram− bacterium, Pseudomonas aeruginosa [3]: ++
Yeast, Candida albicans [4]: −
Moulds, Aspergillus Niger [5]: −
Efficacy on the microorganisms as a whole / spectrum of efficacy [6]: bactericidal
